According to patent US10857170B1, “Molecules, compositions and methods for modulation of SIRT6” (SirTLab Corporation, priority 2015, dated 2020):

Molecular target: T1, Human recombinant SIRT6 (Homo sapiens, UniProt Q8N6T7)
T1 construct: six-histidine (His6); made in house; host or cells: Escherichia coli BL21
Assay: SIRT6 enzymatic activity assay (fluorogenic de-myristoylation of histone H3 peptide-AMC, trypsin-coupled)
Assay type: biochemical
Conditions: percentage of signal increase relative to control wells; for % activity 20 uM: compound 20 uM; for % activity Max. conc. 100 uM / % activity 100 uM: compound 100 uM
Method: Human recombinant SIRT6 (sequence identifier: CAG33481.1; GI:4814651) was expressed in large scale in Escherichia coli strain BL21 as a six-histidine-tagged protein, after transformation of the expression plasmid pET28-SIRT6. The SIRT6 enzyme was purified from the bacteria culture broth in a two-step strategy. The first purification step was carried out by cation exchange chromatography on a HiTrap CM-Sepharose column (GE Healthcare) using an FPLC system. The second purification step was performed by immobilized metal ion affinity chromatography (IMAC) using a cobalt affinity column (Clontech).
The enzymatic activity assay is carried out in 96 or 384-well microplates using the purified recombinant SIRT6 and a fluorophore-labeled peptide substrate: 7-amino-4-methylcoumarin (AMC) that is quenched through conjugation to the C-terminal end of a Lysin-myristoylated histone H3 peptide. The activity assay procedure requires two steps, both performed in the same microplate. In the first step, the substrate is incubated with the purified SIRT6 protein along with the co-substrate nicotinamide adenine dinucleotide (NAD+). Upon de-myristoylation, the liberated ε-amino group of the lysine becomes a trypsin substrate. Treatment with trypsin in the second step releases the fluorophore resulting in an increase in fluorescence. Fluorescence intensity is measured using a fluorescent plate reader (excitation and emission at 370 nm and 450 nm, respectively). The fluorescence signal is directly proportional to SIRT6 enzymatic activity.
In the primary screening, compounds from a library (ChemDiv Inc.) were tested at a single concentration of 20 micromolar for their potential to modulate SIRT6 enzymatic activity. The assay was carried out in 384-well black well plates and all liquid handling was done using a robotic liquid handler. Purified recombinant SIRT6 (1 micromolar) was pre-incubated with each compound (or DMSO in control wells) for 15 minutes at room temperature. The first stage of the assay was initiated by adding a ‘substrate solution’ containing the myristoylated histone H3 peptide and NAD+(for final concentrations of 25 micromolar and 20 micromolar, respectively). After one hour incubation at 37° C., a Trypsin solution (6 mg/mL) was added for 30 minutes at room temperature. Fluorescence intensity was measured using a fluorescent plate reader (Tecan) with excitation at 370 nm and emission at 450 nm. The effect of each tested compound was evaluated by the change in the fluorescence intensity compared to control wells. […] To validate the primary screening results, each of the primary “hits” was re-tested, first at concentration of 20 micromolar in duplicates and later at a serial dilution ranging from 100 to 0.2 micromolar in triplicates.

T1 sequence (Q8N6T7 whole entry): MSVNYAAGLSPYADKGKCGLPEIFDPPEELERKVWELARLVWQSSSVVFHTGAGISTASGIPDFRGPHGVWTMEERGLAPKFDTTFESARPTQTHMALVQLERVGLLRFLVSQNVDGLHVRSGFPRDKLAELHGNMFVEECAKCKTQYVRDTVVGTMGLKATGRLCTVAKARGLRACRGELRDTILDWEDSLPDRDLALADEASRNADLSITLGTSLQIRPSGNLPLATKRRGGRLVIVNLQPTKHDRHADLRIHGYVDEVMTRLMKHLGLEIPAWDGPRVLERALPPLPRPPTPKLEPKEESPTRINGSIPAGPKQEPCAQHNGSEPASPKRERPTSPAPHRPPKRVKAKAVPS

SMILES | % activity 20 uM (Table 1) | % activity Max. conc. 100 uM (Table 1) | % activity 20 uM (Table 2) | % activity 100 uM (Table 2)
C=C(CCOc1ccccc1)N(CCCN(C)C)C1=Nc2c(C)cccc2C1 [A] | 263% | 255% | – | –
Cc1cccc2c1N=C(N(CCCN(C)C)C(=O)CCOc1ccccc1)C2 [B] | 287% | 252% | – | –
C=C1Oc2cc(C[C@@H]3C[C@H](CO)[C@H](O)[C@H](C)[C@H]3O)ccc2C2=C1CCCC2 [C] | 70% | 195% | – | –
CCc1nc(-c2ccccc2)c2cc(Cl)ccc2n1 [compound 1] | – | – | 88% | 428%
C=C(Nc1ccc(Cl)cc1)N1c2ccc(OCC)cc2C(C)=CC1(C)C [compound 2] | – | – | 29% | 46%
C=C(Cc1ccc2c(c1)C(C)=CC(C)(C)N2)Cc1cccc2ccccc12 [compound 4] | – | – | 29% | 56%
CC1=CC(C)(C)Nc2ccc(OC(=O)c3cccs3)cc21 [compound 5] | – | – | 39% | 54%
Cc1ccnc(NC(c2ccc(C)cc2C)c2ccc3cccnc3c2O)c1 (stereo not drawn) [compound 6] | – | – | 30% | 28%
Cn1c(-c2ccc3[nH]c(-c4ccc(N)cc4)nc3c2)nc2cc(N)ccc21 [compound 7] | – | – | 118% | 162%
CCc1nnc(NC(=O)CSc2nc(N)nc(SC)c2C#N)s1 [compound 8] | – | – | 25% | 25%
C=C(CS)Nc1ccc(CCCCC)cc1 [compound 9] | – | – | 22% | 48%
C=C(CN1c2ccccc2C(C)(C)C12C=Cc1c(ccc3ccccc13)C2)NC (stereo not drawn) [compound 10] | – | – | 25% | 27%
C=C1N(C)C(=O)c2c(nc3n2CC(c2ccc(Br)cc2)=NN3)N1C [compound 11] | – | – | 41% | 99%
Cc1nc2sc(-c3nc4ccccc4[nH]3)c(N)c2c(C)c1Cl [compound 12] | – | – | 36% | 59%
O=C1Nc2ccc(Cl)cc2C(c2ccccc2)C1Nc1ccc(Oc2ccccc2)cc1 (stereo not drawn) [compound 13] | – | – | 24% | 86%
N#Cc1c(N)oc(C2=CC=CC2)c1-c1ccco1 [compound 14] | – | – | 28% | 48%
O=c1cc(O)c2sc3nc4c(cc3c2[nH]1)CCCCC4 [compound 15] | – | – | 37% | 75%
C=C1Nc2nc(OC(C)=O)c(C)c(C)c2S1 [compound 16] | – | – | 40% | 197%
COc1ccc(-c2nn3c(C)nnc3s2)cc1N [compound 17] | – | – | 21% | 18%
CC1=NCC(c2ccc(O)cc2O)=C1c1ccc(Cl)cc1 [compound 18] | – | – | 53% | 94%
C=C(OC(C)CC)C1=C(C)NC2=C(C(=C)C(C(=C)OC)C(C)C2)C1c1ccc(N(CC)CC)cc1 (stereo not drawn) [compound 19] | – | – | 37% | 61%
COc1ccc(-c2csc3c(NN)ncnc23)cc1 [compound 20] | – | – | 78% | 22%
C=S(=C)(c1cc(Cl)ccc1Cl)n1c(/C=C/c2ccc(SC)cc2)nc2ccccc21 [compound 21] | – | – | 38% | 36%
CCN1CCCC1CNC(=O)C1CCN(c2cc(C)nc3c(-c4ccc(Cl)cc4)c(C)nn23)CC1 (stereo not drawn) [compound 22] | – | – | 32% | 29%
Cc1ccccc1CSc1ncc(Sc2ccccc2)c(C(=O)NCc2ccccc2)n1 [compound 23] | – | – | 55% | 65%
Cc1cc(NC(=O)CSc2nnc(-c3sc4ncccc4c3N)n2C)ccc1Cl [compound 24] | – | – | 77% | 47%
Cc1cc(Nc2ccc(NC(=O)Nc3ccc4c(c3)CCCO4)cc2)nc(NC2CCCCC2)n1 [compound 25] | – | – | 26% | 22%

SMILES | % activity 20 uM (Table 1) | % activity Max. conc. 100 uM (Table 1) | % activity 20 uM (Table 2) | % activity 100 uM (Table 2)
CC[C@H]1O[C@@H](Cc2ccc3c(c2C)CC(=O)C(C)=C3C)[C@H](C)[C@@H](O)[C@H]1C [compound 26] | – | – | 21% | 56%
O=C(NCc1cccc(Cl)c1)c1noc2c1CSc1ccccc1-2 [compound 27] | – | – | 59% | 137%
C=C1Cc2ccc(C)cc2C2=C1C(c1ccc(F)cc1)=C(NCCOC)C2 [compound 28] | – | – | 134% | 246%
C=C1Oc2ccc(C)cc2-c2oc(NCCOC)c(-c3ccc(OCC)cc3)c21 [compound 29] | – | – | 82% | 226%
COCCNc1oc2c(c1-c1ccc(C)cc1)c(=O)oc1c(C)cccc12 [compound 30] | – | – | 149% | 111%
Cc1ccc(NC(=O)c2nnc(-c3ccc(NC(=O)c4cccs4)cc3)s2)cc1 [compound 31] | – | – | 29% | 16%
C=C(CN1C(=C)C(c2nc(-c3ccccc3)no2)=C(C)C=C1C)NCCc1ccc(CC)c(CC)c1 [compound 32] | – | – | 101% | 73%
C=C(CN1C(=C)C(c2nc(-c3ccccc3)no2)=C(C)C=C1C)NC1CCCCC1 [compound 33] | – | – | 53% | 221%
C=C(Oc1ccc2cnccc2c1)C1=C(N)c2ccccc2C1 [compound 35] | – | – | 154% | 324%
C=C(Nc1ccc(CC)c(Cl)c1)c1cc(N)cc2cn[nH]c12 [compound 36] | – | – | 45% | 56%
C=C1Cc2c(cccc2CC)C=C1C1=CCC(NC(=O)CCC(=O)NCCCN2CCC(C)CC2)=N1 [compound 37] | – | – | 42% | 35%
C=S(=O)(C1=CC=C(c2ccc(N3CCCCC3)nn2)C1)N1CCCC(C(=O)OCC)C1 (stereo not drawn) [compound 38] | – | – | 52% | 52%
C=C(Nc1ccc(CCC)cc1)C1=C(C)c2c(nc(C)nc2N(C)c2ccc(C(C)C)cc2)C1 [compound 39] | – | – | 32% | 54%
C=C(CC)Nc1ccc(-c2cc(C(=O)NCCCN3CCCCCC3)c3ccccc3n2)cc1 [compound 40] | – | – | 62% | 92%
CCC(=O)Nc1ccc(-c2cc(C(=O)NCCCN3CCCCC3C)c3ccccc3n2)cc1 (stereo not drawn) [compound 41] | – | – | 40% | 110%
C=C(CC)Nc1ccc(-c2cc(C(=O)NCCCN3CCCC(C)C3)c3ccccc3n2)cc1 (stereo not drawn) [compound 42] | – | – | 61% | 87%
C=C(NCCN1CCN(C)CC1)c1cc(-c2ccc(NC(C)=O)cc2)nc2ccc(C)cc12 [compound 43] | – | – | 96% | 119%
C=C(c1ccc(-c2nc3ccccc3n(CC(C)C)c2=O)cc1)N1CCN(c2ccccc2)CC1 [compound 46] | – | – | 51% | 56%
C=C(NCCC)c1ccc(-c2ccc(N3CCCCC3)nc2)cc1 [compound 47] | – | – | 63% | 50%
C=C(c1ccc(-c2ccc(N3CCCCC3)nc2)cc1)N(C)C [compound 48] | – | – | 40% | 54%
O=C(c1ccc(-c2ccc(N3CCCCC3)nc2)cc1)N1CCCC1 [compound 49] | – | – | 93% | 75%
O=C(Nc1ccc2nncn2c1)c1cccc(Cl)c1 [compound 50] | – | – | 30% | 51%
CC(C)(C)c1ccc(C(=O)Nc2ccc3nnc(C4CCC4)n3c2)cc1 [compound 51] | – | – | 23% | 87%
O=C(Nc1ccc2nnc(C3CCC3)n2c1)C1CC1 [compound 52] | – | – | 69% | 142%
Cc1nc(Nc2ccc(F)cc2)sc1C(=O)Nc1ccc(F)cc1F [compound 53] | – | – | 36% | 22%
Cc1ccc(Nc2nc(C)c(C(=O)Nc3cccc(C(C)C)c3)s2)cc1 [compound 54] | – | – | 31% | 11%
COc1cc(NC(=O)c2csc(-c3cn(C)c4ncccc34)n2)cc(OC)c1 [compound 55] | – | – | 31% | 37%
